Marks after values point to notes of the source that are not given here.
Assays:
Assay type in all cases: in vivo, C57BL/6N/CriBgi mice
[1] = system: lipoprotein lipase (LPL) mRNA; assay: Expression of mRNA for LPL in liver tissue (real-time PCR)
β-oxidation = assay: Mitochondrial β-oxidation activity; conditions: mitochondrial fraction, high fat diet, 6 weeks
Description: (§1) Test diets were as follows: “normal diet group”=AIN-76 semisynthetic diet of Teklad (Madison, Wl, USA); “high fat diet group”=normal diet+10% of corn oil and 10% of lard; “test group I”=high fat diet+fucoxanthin extract of Example 1 (fucoxanthin content=0.05%); “test group II”=high fat diet+fucoxanthin extract of Example 1 (fucoxanthin content=0.2%); “test group III”=high fat diet+fucoxanthin extract of Example 2 (fucoxanthin content=0.05%); “test group IV”=high fat diet+fucoxanthin extract of Example 2 (fucoxanthin content=0.2%). The 6 diets (normal diet, high fat diet, and test I, II, III and IV) were given to the animals for 6 weeks. Diet intake was recorded every day, and body weight was measured once a week.
Mitochondrial β-oxidation activity was measured from the degree of reduction of NAD to NADH using palmitoyl-CoA. Specifically, 10 μL of mitochondrial fraction was added to a reaction solution containing 50 mM Tris-HCl (pH 8.0), 20 mM NAD, 0.33 M DTT, 1.5% BSA (1.5 g/100 mL), 2% Triton X-100 (2 g/100 mL), 10 mM CoA, 1 mM FAD, 100 mM KCN and 5 mM palmitoyl-CoA to initiate reaction. Then, change of absorbance was measured at 37° C. and 340 nm for 5 minutes. β-Oxidation activity was calculated as nmol of NADH produced per 1 mg of mitochondrial protein per minute.

[2] = Amount of feces and cholesterol content in feces; conditions: high fat diet, 6 weeks
Description: Seventy (70) 4-week-old male C57BL/6N/CriBgi mice weighing 14 g were purchased from Orient, and reared in separate cages maintained at 24° C. and relative humidity of 55%, providing light from 08:00 until 20:00. The mice were accustomed while providing a pellet type diet for a week. The mice, which weighed 18.5-18.7 g, were grouped into seven groups by the randomized block design. Each group was given a different diet, as follows.
as §1
Feces were taken from the mice fed with the test diets for 6 weeks of Reference Example 1. The amount of feces and cholesterol content in the feces were measured.

β-oxidase mRNA = assay: Expression of mRNA for β-oxidation in adipose tissue (real-time PCR); conditions: normal diet = 1.00, GAPDH internal marker
Description: as §1
(§2) 5 mL of Trizol was added to 0.5 g of white adipose tissue. After pulverizing in liquid nitrogen using a mortar, the tissue was added to 1 mL of chloroform. […] The isolated RNA was diluted and absorbance was measured at 260 nm using a UV spectrometer. […]
(§3) Thus prepared cDNA was […] 10-fold, and primers for analyzing the expression of the respective genes (CPT, β-oxidation, FAS, ME and G6PD) were obtained from Genotech (Daejeon, Korea). […] Fluorescence signals were monitored for each cycle and threshold cycle (Cr) was analyzed for quantitative analysis of mRNA for the test groups (Applied Biosystems, SDS7000) (Livak, 2001). […]

FAS mRNA = assay: Expression of mRNA for FAS in adipose tissue (real-time PCR); conditions: normal diet = 1.00, GAPDH internal marker
Description: as §1, §2, §3

ME mRNA = assay: Expression of mRNA for ME in adipose tissue (real-time PCR); conditions: normal diet = 1.00, GAPDH internal marker
Description: as §1, §2, §3

[3] = system: fatty acid synthase (FAS); assay: FAS activity in liver tissue; conditions: high fat diet, 6 weeks
Description: as §1
(§4) The supernatant was centrifuged again at 12,000×g for 15 minutes. Then, the supernatant was subjected to high-speed centrifuging (Beckman, Optima TLX-120, USA) at 100,000×g for 1 hour. Then, change of the activity of enzymes involved in the synthesis of fatty acid—fatty acid synthase (FAS), glucose-6-phosphate dehydrogenase (G6PD) and malic enzyme (ME)—was measured.
(§5) Specifically, FAS activity was determined as follows. […] After 10 minutes of reaction at 30° C., decrease of absorbance was measured. FAS activity was calculated as nmol of NADPH oxidized per 1 mg of protein in cell per minute.

[4] = system: fatty acid synthase (FAS); assay: FAS activity in adipose tissue; conditions: high fat diet, 6 weeks
Description: as §1, §4, §5

[5] = fucoxanthin content 0.05% (Test I/III)
[6] = fucoxanthin content 0.2% (Test II/IV)

In the case of `CC(=O)O[C@H]1CC(C)(C)C(=C=C/C(C)=C/C=C/C(C)=C/C=C/C=C(C)/C=C/C=C(\C)C(=O)C[C@@]23O[C@]2(C)C[C@@H](O)CC3(C)C)[C@](C)(O)C1` [highly pure fucoxanthin, Fucoxanthin], the “Expression of mRNA, LPL” value ([1]; normal diet = 1.00, fucoxanthin content 0.05% (Test I/III)) is reported as 2.11 ± 0.09^b, the “Expression of mRNA, LPL” value ([1]; normal diet = 1.00, fucoxanthin content 0.2% (Test II/IV)) is reported as 1.20 ± 0.14^a and the β-Oxidation activity (β-oxidation; [5]) is reported as 9.46 ± 2.56^bc mmol/min/mg protein. The β-Oxidation activity (β-oxidation; [6]) was 13.28 ± 3.79^c mmol/min/mg protein, the Amount of feces [2, 5] was 0.226 ± 0.01^c g/day and the “Cholesterol content in feces” value [2, 5] was 237.88 ± 10.39^c umol/g. The Amount of feces [2, 6] was 0.209 ± 0.01^bc g/day, the “Cholesterol content in feces” value [2, 6] was 508.79 ± 13.25^c umol/g and the “Expression of mRNA, β-Oxidation” value (β-oxidase mRNA; [5]) was 1.41 ± 0.50^b. The “Expression of mRNA, β-Oxidation” value (β-oxidase mRNA; [6]) was 1.26 ± 0.24^b, the “Expression of mRNA, FAS” value (FAS mRNA; [5]) was 0.51 ± 0.03^abc and the “Expression of mRNA, FAS” value (FAS mRNA; [6]) was 0.28 ± 0.05^a. The “Expression of mRNA, ME” value (ME mRNA; [5]) was 0.70 ± 0.07^ab, the “Expression of mRNA, ME” value (ME mRNA; [6]) was 0.52 ± 0.06^a and the FAS activity [3, 5] was 7.92 ± 0.59^a mmol/min/mg protein. The FAS activity [3, 6] was 9.49 ± 0.65^ab mmol/min/mg protein, the FAS activity [4, 5] was 90.55 ± 9.66^a mmol/min/mg protein and the FAS activity [4, 6] was 74.26 ± 6.38^a mmol/min/mg protein.

From patent publication US20100210722A1, “COMPOSITION FOR PREVENTING OR TREATING LIPID METABOLIC DISORDERS COMPRISING FUCOXANTHIN OR MARINE PLANT EXTRACT CONTAINING SAME” (AMICOGEN, INC., priority 2007, published 2010)
